From ChEMBL document CHEMBL1201862, “PubChem BioAssay data set” (2004) come the findings set out here.

By AC50 is commonly meant the concentration giving half of the maximal activity seen. A word on the EC50: it is the midpoint of the concentration-response curve. Usually Ki stands for a dissociation constant, usually derived from enzyme kinetics or from competition with a known ligand.

Active and inactive are the calls of the source. A value given as a limit tells only on which side of the number the result lay.

Test [1] in a line: general mammalian cell viability loss – inhibitor set, cherry-pick, set 2, cytotoxicity control for miR-122 modulator project, dose response (AID 720697). The class given is functional, cell-based.
The target of test [2] is FAD-linked sulfhydryl oxidase ALR (Homo sapiens, UniProt P55789). Kind of test: ALR-catalysed DTT oxidation blockers – biochemical, H2O2 detection, luminescence, cherry-pick, dose response (AID 493248).
Test [3] has as its target T1, Rac GTPase-activating protein 1 (Homo sapiens, UniProt Q9H0H5).
T1 sequence (Q9H0H5 whole entry): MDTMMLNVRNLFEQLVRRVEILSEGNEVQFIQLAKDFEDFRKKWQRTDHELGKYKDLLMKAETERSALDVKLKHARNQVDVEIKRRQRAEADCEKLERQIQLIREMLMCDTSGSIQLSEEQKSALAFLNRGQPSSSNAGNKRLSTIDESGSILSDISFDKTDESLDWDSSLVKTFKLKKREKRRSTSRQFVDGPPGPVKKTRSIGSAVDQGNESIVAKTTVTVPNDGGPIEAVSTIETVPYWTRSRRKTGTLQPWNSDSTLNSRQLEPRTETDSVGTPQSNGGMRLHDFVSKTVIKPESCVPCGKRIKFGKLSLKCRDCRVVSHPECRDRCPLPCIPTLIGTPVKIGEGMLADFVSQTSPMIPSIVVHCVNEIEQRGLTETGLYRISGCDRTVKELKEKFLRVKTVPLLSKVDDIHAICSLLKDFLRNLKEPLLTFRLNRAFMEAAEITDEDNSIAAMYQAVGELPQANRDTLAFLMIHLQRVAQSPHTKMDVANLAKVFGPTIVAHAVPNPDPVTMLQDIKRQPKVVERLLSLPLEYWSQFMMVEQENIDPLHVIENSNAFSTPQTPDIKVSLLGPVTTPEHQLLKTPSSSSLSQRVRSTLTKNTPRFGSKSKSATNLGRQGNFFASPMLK
Kind of test: blockers of MgcRacGAP-driven Rac1 GTP hydrolysis – biochemical, ADP Hunter fluorescence, primary and confirmatory, confirmation (AID 624330). It is filed as functional.

The nature of test [4]: HGIII-sPLA2 enzyme inhibition potency – biochemical, QFRET, IC50, dose response (AID 743457).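 Note: green fluorescence rise as the enzyme cleaves BODIPY PC-A2 in liposomes.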
Test [5] addresses T2, Oxysterols receptor LXR-beta (Homo sapiens, UniProt P55055).
T2 sequence (P55055 whole entry): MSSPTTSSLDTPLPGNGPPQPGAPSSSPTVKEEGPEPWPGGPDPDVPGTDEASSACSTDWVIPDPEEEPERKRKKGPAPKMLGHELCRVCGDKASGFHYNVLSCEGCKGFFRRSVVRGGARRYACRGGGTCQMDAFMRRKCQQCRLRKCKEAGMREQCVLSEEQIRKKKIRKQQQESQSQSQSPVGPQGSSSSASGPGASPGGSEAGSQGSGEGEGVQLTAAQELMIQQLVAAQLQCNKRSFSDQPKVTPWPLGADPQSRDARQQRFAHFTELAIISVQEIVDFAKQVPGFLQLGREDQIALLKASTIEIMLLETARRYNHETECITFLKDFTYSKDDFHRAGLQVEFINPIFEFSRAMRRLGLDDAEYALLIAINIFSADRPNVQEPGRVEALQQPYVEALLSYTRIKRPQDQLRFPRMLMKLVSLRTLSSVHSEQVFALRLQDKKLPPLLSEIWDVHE
The class given is functional, cell-based.

A further test concerns the target Cytochrome P450 2C19 (Homo sapiens, UniProt P33261). Kind of test: Cytochrome panel assay with activity outcomes. Panel member name: p450-cyp2c19 Compounds with AC50 equal or less than 10 uM are considered active. To be noted: read-out: AC50. It is filed as functional.
A further test addresses fMet-Leu-Phe receptor (Homo sapiens, UniProt P21462). The test is described as follows: formyl peptide receptor binders – dose response (AID 519). The class given is functional.
The target in a further test is T3, Cytochrome P450 1A2 (Homo sapiens, UniProt P05177).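 Note: PubChem cytochrome P450 panel assay, CYP1A2 panel member.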
T3 sequence (P05177 whole entry): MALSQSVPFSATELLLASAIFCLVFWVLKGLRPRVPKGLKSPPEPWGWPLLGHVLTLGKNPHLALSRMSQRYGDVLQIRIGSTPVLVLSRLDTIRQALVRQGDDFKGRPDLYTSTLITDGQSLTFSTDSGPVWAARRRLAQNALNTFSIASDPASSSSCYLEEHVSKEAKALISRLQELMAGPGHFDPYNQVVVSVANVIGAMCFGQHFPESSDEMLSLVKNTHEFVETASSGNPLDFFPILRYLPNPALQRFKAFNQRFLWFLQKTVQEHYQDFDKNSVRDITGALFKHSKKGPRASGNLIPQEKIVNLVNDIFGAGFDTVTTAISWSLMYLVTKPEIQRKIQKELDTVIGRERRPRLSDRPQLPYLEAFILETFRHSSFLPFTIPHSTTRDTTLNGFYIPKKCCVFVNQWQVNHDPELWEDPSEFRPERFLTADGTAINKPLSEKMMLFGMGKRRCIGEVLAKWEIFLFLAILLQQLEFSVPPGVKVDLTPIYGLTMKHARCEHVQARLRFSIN

A further test has as its target Cytochrome P450 3A4 (Homo sapiens, UniProt P08684).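 Note: CYP3A4 tested as one member of a cytochrome P450 panel screen.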
In another test the target is Cytochrome P450 2C9 (Homo sapiens, UniProt P11712).
Test [6] deals with T4, Carboxy-terminal domain RNA polymerase II polypeptide A small phosphatase 1 (Homo sapiens, UniProt Q9GZU7).
T4 sequence (Q9GZU7 whole entry): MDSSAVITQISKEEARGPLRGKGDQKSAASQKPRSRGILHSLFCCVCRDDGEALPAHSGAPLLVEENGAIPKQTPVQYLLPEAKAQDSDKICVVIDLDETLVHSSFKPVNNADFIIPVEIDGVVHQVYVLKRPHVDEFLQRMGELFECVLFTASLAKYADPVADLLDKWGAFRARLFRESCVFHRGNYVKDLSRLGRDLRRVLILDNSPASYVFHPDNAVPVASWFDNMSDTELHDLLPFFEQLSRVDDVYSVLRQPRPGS
The test is described as follows: CTDSP1 inhibitors, concentration-response, biochemical, absorbance readout, ultra-high-throughput screen actives (AID 540297). It is filed as functional.

For test [7], the target named is Nuclear receptor subfamily 5 group A member 2 (Homo sapiens, UniProt O00482). It is filed as functional, cell-based.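 Note: HEK293T cells transfected with LRH-1 and a StAR promoter luciferase reporter; potency for inhibitors that lower LRH-1 driven reporter light.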
Test [8] has as its target T5, Low molecular weight phosphotyrosine protein phosphatase (Homo sapiens, UniProt P24666).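 Note: Dose-response confirmation assay measuring inhibition of LMPTP enzyme activity by fluorescence intensity read-out.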
T5 sequence (P24666 whole entry): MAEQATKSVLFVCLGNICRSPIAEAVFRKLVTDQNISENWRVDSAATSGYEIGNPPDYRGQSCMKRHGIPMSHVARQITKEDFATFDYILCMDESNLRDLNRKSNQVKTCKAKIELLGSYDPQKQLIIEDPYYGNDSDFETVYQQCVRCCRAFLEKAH
It is filed as functional. To be noted: read-out: IC50_Mean.

Another test addresses Steroidogenic factor 1 (Homo sapiens, UniProt Q13285). The test is described as follows: Counterscreen for inverse agonists of the liver receptor homolog-1 (LRH-1; NR5A2): Luminescence-based cell-based high throughput dose response assay to identify inverse agonists of the Steroidogenic Factor 1 Nuclear Receptor (SF1; NR5A1). The class given is functional. (A counterscreen serves to expose hits that act by an unwanted route or on another target.)

The target of the next test is Albumin (Bos taurus, UniProt P02769). Kind of test: Counterscreen for inhibitors of T-cell receptor (TCR)-CD3 interaction: Fluorescence-based biochemical high throughput dose response assay to identify inhibitors of T-cell receptor (TCR)-CD3 interaction using a TAMRA-labeled BSA probe. It is filed as functional.
The target of test [9] is T6, DNA repair and recombination protein RAD54-like (Homo sapiens, UniProt Q92698).
T6 sequence (Q92698 whole entry): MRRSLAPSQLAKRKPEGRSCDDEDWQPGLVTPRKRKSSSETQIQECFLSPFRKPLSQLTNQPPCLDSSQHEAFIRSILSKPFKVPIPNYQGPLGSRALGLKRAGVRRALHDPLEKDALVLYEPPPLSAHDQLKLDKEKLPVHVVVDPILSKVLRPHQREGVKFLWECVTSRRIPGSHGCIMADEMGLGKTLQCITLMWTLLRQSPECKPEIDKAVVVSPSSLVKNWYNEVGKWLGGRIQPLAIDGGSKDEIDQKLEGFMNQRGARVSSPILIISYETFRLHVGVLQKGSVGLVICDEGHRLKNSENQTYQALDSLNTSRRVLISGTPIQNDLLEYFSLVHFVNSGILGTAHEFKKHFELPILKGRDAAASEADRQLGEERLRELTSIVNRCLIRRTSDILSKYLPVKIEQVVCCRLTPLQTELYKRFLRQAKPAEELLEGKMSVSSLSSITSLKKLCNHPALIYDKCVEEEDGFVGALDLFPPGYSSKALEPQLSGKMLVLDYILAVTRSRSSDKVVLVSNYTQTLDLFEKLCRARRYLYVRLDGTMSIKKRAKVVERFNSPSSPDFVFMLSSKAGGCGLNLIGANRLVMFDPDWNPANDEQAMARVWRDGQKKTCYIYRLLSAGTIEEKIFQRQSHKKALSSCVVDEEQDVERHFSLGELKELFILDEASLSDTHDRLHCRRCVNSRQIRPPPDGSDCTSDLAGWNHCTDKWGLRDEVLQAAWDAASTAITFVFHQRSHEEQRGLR
Kind of test: RAD54 Holliday junction migration blockers – biochemical, fluorescence, cherry-picked samples, dose series, confirmation (AID 651657). It is filed as functional.

Test [10] addresses T7, DNA repair protein RAD52 homolog (Homo sapiens, UniProt P43351).
T7 sequence (P43351 whole entry): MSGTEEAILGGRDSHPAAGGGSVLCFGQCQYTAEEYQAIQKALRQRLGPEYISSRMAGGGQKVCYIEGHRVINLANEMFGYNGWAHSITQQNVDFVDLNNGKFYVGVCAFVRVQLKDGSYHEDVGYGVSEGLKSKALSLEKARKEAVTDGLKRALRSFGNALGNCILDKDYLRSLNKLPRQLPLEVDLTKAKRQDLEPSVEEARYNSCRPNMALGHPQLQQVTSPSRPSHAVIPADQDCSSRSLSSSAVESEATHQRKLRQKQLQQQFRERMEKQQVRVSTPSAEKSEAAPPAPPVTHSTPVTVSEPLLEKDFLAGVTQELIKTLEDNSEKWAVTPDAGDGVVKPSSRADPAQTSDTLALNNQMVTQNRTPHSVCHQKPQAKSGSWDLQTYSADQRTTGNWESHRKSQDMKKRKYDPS
It is filed as functional, biochemical.

For test [11], the target named is T2, Oxysterols receptor LXR-beta. The class given is functional, cell-based. This is another data set of the same source.
The target of the next test is Paired box protein Pax-8 (Homo sapiens, UniProt Q06710). Kind of test: PAX8 transcriptional activity inhibition in RMG-I – RMG-I cells, luciferase, cherry-pick, dose response (AID 687027).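 Note: luciferase reporter driven by Pax8 target thyroperoxidase promoter measured by SteadyGlo luminescence.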 The class given is functional, cell-based.
Test [12] is described as follows: A2780 cell killing – plate reader, dry powder samples, cytotoxicity control, dose response (AID 743046). The class given is functional, cell-based.
The nature of test [13]: OVCAR-3 cell viability loss – plate reader, dry powder samples, PAX8 inhibitor project, dose response (AID 743044). The class given is functional, cell-based.
The nature of test [14]: OVCAR8 cell viability loss – plate reader, dry powder samples, PAX8 project, dose response (AID 743197). The class given is functional, cell-based. To be noted: OVCAR-8.
A short description of test [15]: T. cruzi growth inhibition in host cells, dose response, cell-based, plate reader, dry powder, set 2 (AID 652275). It is filed as functional.
Test [16] in a line: MITF Orthogonal Assay: SK-MEL-5 CTG Assay Measured in Cell-Based System Using Plate Reader - 2084-02_Inhibitor_Dose_DryPowder_Activity_Set7. It is filed as functional.
A short description of test [17]: MITF: Counter assay: A375 proliferation Measured in Cell-Based System Using Plate Reader - 2084-03_Inhibitor_Dose_DryPowder_Activity_Set8. The class given is functional. To be noted: A-375.

Sequence of fMet-Leu-Phe receptor (P21462 whole entry): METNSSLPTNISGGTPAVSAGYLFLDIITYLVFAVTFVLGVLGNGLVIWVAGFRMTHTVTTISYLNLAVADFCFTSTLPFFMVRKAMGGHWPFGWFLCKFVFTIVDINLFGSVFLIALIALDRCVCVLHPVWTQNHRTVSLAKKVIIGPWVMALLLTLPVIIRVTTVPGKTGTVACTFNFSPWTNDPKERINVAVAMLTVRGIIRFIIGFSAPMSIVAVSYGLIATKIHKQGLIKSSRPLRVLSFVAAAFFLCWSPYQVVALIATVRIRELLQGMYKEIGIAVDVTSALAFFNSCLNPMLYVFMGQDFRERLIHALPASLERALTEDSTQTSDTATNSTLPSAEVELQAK
Sequence of Nuclear receptor subfamily 5 group A member 2 (O00482 whole entry): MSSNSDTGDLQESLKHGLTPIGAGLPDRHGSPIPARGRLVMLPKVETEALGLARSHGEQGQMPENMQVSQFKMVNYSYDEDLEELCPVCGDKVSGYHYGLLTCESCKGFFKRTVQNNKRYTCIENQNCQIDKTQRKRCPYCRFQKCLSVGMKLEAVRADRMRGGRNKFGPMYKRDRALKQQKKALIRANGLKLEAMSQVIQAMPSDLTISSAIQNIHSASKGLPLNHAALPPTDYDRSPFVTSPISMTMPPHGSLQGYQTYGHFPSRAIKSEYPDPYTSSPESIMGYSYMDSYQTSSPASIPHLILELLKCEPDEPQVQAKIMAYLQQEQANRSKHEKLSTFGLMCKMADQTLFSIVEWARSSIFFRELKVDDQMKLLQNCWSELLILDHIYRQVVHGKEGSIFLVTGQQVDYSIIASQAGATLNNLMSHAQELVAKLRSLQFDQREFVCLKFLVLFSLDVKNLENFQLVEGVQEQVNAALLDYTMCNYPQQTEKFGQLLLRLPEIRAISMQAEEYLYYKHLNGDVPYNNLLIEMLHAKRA
Sequence of Steroidogenic factor 1 (Q13285 whole entry): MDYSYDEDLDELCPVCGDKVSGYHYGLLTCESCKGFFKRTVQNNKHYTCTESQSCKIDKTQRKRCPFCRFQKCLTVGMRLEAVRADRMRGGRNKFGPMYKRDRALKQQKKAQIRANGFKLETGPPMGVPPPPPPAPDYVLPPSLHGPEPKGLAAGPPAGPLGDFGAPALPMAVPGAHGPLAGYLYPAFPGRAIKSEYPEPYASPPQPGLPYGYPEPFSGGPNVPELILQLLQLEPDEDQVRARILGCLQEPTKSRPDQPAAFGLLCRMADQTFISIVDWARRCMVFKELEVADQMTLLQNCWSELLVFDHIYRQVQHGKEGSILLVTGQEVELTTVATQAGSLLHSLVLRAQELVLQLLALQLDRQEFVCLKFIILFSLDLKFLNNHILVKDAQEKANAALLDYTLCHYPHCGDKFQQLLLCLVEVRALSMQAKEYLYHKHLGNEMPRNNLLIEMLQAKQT
Sequence of Cytochrome P450 2C9 (P11712 whole entry, the tested form may be a part): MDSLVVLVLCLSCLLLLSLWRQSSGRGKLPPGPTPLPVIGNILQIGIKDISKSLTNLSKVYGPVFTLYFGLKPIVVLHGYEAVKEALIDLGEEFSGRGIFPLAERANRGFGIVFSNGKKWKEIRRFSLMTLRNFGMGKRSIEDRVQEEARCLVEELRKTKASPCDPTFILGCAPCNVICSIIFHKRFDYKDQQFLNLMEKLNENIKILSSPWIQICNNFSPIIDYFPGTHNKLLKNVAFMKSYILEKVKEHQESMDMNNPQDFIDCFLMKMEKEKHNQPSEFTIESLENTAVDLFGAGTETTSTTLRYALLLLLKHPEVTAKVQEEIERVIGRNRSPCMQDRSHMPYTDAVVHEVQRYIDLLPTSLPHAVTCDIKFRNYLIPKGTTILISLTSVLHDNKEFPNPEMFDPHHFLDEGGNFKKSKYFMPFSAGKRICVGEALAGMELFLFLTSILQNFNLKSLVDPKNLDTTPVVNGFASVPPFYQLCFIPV
Sequence of Paired box protein Pax-8 (Q06710 whole entry): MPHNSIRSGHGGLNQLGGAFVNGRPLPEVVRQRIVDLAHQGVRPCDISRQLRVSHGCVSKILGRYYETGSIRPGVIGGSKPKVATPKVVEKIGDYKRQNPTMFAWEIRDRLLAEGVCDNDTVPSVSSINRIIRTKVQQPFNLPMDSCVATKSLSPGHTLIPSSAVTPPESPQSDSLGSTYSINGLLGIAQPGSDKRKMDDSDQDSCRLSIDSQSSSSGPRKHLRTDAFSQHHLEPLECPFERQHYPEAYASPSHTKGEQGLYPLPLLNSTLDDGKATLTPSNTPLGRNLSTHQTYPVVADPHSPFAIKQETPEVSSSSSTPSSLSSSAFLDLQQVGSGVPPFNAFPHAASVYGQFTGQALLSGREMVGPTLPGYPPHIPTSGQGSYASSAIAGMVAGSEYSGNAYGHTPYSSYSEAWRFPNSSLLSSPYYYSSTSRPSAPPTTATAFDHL
Sequence of Albumin (P02769 whole entry): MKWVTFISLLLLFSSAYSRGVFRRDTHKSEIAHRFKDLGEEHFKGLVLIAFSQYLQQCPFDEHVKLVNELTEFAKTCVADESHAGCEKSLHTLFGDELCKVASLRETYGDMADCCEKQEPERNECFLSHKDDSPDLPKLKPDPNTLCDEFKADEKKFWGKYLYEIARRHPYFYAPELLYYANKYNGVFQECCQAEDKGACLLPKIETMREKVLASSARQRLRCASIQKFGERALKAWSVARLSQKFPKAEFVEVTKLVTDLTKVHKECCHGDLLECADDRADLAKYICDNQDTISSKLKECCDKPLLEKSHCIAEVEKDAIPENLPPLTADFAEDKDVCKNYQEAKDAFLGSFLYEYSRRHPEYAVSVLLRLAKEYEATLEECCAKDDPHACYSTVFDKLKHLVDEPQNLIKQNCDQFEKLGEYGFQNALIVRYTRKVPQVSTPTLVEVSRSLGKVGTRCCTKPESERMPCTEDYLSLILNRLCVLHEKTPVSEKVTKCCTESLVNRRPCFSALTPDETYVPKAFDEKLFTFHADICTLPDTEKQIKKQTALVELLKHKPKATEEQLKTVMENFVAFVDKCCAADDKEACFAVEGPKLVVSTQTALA
Sequence of Cytochrome P450 3A4 (P08684 whole entry): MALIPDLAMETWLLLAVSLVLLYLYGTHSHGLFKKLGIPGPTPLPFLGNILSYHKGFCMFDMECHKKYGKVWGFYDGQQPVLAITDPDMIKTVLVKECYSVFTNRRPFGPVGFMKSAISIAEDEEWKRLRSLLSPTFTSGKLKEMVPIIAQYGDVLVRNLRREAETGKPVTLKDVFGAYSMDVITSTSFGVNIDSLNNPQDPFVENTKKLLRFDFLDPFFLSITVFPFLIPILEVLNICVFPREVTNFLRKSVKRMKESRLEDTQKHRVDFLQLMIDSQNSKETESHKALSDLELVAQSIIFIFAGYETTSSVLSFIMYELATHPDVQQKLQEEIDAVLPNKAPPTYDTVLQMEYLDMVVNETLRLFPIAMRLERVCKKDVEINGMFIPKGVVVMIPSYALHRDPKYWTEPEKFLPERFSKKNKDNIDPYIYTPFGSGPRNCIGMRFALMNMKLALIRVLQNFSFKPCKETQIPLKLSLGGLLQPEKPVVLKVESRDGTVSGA
Sequence of FAD-linked sulfhydryl oxidase ALR (P55789 whole entry): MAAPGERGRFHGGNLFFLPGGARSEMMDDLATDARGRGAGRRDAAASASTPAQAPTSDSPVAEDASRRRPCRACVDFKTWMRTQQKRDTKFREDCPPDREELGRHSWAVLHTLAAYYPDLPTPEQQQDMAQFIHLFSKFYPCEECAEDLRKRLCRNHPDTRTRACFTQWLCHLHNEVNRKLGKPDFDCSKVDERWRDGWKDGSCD
Sequence of Cytochrome P450 2C19 (P33261 whole entry): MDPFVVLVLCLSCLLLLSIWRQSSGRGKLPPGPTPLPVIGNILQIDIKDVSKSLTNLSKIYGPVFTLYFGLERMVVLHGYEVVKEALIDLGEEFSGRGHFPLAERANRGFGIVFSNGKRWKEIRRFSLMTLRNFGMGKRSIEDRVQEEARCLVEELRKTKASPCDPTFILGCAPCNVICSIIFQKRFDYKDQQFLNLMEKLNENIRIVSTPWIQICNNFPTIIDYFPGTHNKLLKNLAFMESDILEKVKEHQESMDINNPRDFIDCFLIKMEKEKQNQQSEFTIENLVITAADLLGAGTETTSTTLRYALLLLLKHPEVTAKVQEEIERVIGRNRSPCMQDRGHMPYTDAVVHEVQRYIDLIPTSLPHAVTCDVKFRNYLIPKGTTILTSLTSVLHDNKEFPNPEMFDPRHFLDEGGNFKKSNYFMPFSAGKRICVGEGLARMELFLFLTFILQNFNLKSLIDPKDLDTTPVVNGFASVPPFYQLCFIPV

Regarding `CCOc1ccc(C(CCc2ccccc2)NC(=O)c2ccccc2F)cc1OCC` (stereo not drawn), the AC50 in [1] was 4.56 µM (active).

With `O=C(Nc1ccc(N2CCCCCC2)cc1)c1ccc[nH]1`, the AC50 in [2] was 0.42 µM (active). In addition, the IC50 was 34 µM (active) in test [3] and 100 µM (inactive) in test [4].

With `O=c1c2ccccc2cnn1-c1ccc(Cl)cc1`, the EC50 (in [5]; in “cells”) was > 67.5 µM (inactive) each time.

In the case of `COc1cc(C2C(C(=O)c3cccs3)=C(O)C(=O)N2Cc2ccco2)cc(OC)c1OC` (stereo not drawn), the AC50 on Cytochrome P450 2C19 was 14.1 µM (inconclusive); at Cytochrome P450 1A2 it was 17.8 µM (inconclusive); on Cytochrome P450 3A4 it was 25.1 µM (inconclusive); on Cytochrome P450 2C9, 25.1 µM (inconclusive). The Ki at fMet-Leu-Phe receptor was 27 µM (inactive).

With `COc1ccc(NC(=O)CSc2sc3c(O)cc(=O)[nH]c3c2C#N)c(OC)c1`, the IC50 in test [6] was 4.21 µM (active); in [7] it was 20.2 µM (inactive); in test [8], 26 µM (inactive); at Steroidogenic factor 1, 13 µM (inactive); on Albumin, > 94.1 µM (inactive).

For `Cc1c(CNCc2cccs2)c(C(=O)O)c(C)n1Cc1ccccc1`, the Ki at fMet-Leu-Phe receptor is > 66.7 µM (inactive).

Regarding `COc1ccc2oc3cc(NCCN(C)C)ccc3c(=O)c2c1`, the AC50 in [9] is 7.73 µM (active); in [10] it was 5.46 µM (active). Moreover, the EC50 in test [11] is > 67.5 µM (inactive).

Turning to `COc1ccc(S(=O)(=O)N2CCCCN3[C@H](CO)[C@@H](c4ccc(C#CC(C)C)cc4)[C@H]3C2)cc1`, the AC50 on Paired box protein Pax-8 was 12 µM (active); in test [12] it was 27.1 µM (active); in test [13], 34 µM (active); in test [14] it was > 70 µM (inactive).

Turning to `CC(C)N1CC2(CN(Cc3ccccn3)C2)Oc2c(NC(=O)c3ccncc3)cccc2C1=O`, the AC50 in test [15] is 1.37 µM (active).

Take `O=C1C=C(NC2CCCCC2)C(=O)c2ccccc21`: the AC50 in [16] is 18.9 µM (active); in [17] it was > 70 µM (inactive).

Turning to `COCCNC(=O)c1cc2c(c(-c3cccc(C#CCN(C)C)c3)n1)[C@@H](CCO)N([S+]([O-])C(C)(C)C)C2` (stereo partly drawn), in test [15], the AC50 was 4.21 µM (active).
